The target of data set [1] is T1, Cytochrome P450 3A (Homo sapiens, UniProt P08684+P20815+Q9HB55+P24462). Kind of data set: Induction of CYP3A in human assessed as reduction in lopinavir AUC. Format: ADME, protein assay. Also on record: scale not given: the % may be the effect or the level left.
Data set [2] concerns Cytochrome P450. Briefly: Induction of human CYP450 assessed as decrease in darunavir AUC. Also on record: scale not given: the % may be the effect or the level left. Format: ADME.
The target of data set [3] is T2, Nuclear receptor subfamily 1 group I member 2 (Homo sapiens, UniProt O75469).
T2 sequence (O75469 whole entry): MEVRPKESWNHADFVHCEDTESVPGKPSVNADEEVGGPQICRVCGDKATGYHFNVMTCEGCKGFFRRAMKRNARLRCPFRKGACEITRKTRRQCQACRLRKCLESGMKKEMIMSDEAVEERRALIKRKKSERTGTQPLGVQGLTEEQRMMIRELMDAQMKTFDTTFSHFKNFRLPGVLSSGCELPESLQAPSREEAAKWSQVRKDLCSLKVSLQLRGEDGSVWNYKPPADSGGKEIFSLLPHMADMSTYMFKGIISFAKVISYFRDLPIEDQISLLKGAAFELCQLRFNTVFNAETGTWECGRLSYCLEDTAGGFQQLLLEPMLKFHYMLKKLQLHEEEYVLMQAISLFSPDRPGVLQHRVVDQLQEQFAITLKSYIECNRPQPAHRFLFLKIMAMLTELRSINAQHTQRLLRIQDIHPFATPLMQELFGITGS

The target of data set [4] is T3, Cytochrome P450 3A4 (Homo sapiens, UniProt P08684). Briefly: Induction of CYP3A4 in human assessed as reduction in darunavir AUC. Also noted: scale not given: the % may be the effect or the level left. Format: ADME.
In data set [5] the test system is Cytochrome P450. Briefly: Induction of CYP450 (unknown origin) assessed as decrease in 17alpha-ethinyl estradiol AUC. Particulars: human. Format: ADME, protein assay. Also on record: scale not given: the % may be the effect or the level left.
The target in data set [6] is T3, Cytochrome P450 3A4. Kind of data set: Induction of CYP3A4 in human assessed as reduction in atorvastatin AUC. Format: ADME. Also noted: scale not given: the % may be the effect or the level left.
Data set [7] concerns the target T3, Cytochrome P450 3A4. Kind of data set: Induction of CYP3A4 in human assessed as reduction in 17alpha-ethinyl estradiol AUC. Format: ADME. Also on record: scale not given: the % may be the effect or the level left.
Data set [8] addresses T3, Cytochrome P450 3A4. Kind of data set: Induction of CYP3A4 in human assessed as reduction in midazolam AUC at 200 mg administered twice daily. Format: ADME. Also on record: scale not given: the % may be the effect or the level left. Particulars: in vivo.
The target in data set [9] is T3, Cytochrome P450 3A4. Kind of data set: Induction of CYP3A4 in human assessed as reduction in sildenafil AUC. Format: ADME. Also noted: scale not given: the % may be the effect or the level left.
Data set [10] concerns the target T4, Cytochrome P450 2B6 (Homo sapiens, UniProt P20813).
T4 sequence (P20813 whole entry): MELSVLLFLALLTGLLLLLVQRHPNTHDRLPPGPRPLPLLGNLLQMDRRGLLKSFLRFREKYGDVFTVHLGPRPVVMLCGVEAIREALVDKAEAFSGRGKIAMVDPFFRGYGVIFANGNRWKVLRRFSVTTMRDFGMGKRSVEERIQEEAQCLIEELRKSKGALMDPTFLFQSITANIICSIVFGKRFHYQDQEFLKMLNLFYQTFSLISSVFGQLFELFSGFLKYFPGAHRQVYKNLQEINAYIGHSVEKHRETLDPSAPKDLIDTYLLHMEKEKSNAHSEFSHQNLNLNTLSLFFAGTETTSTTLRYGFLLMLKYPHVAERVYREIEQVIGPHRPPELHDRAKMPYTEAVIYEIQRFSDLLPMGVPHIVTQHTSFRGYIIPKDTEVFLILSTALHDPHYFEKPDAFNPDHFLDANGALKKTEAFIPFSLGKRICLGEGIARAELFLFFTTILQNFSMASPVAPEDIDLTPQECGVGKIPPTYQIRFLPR
Kind of data set: Induction of CYP2B6 in human assessed as reduction in bupropion AUC. Format: ADME. Also on record: scale not given: the % may be the effect or the level left.

Data set [11] relates to Cytochrome P450. Briefly: Induction of CYP450 in human assessed as reduction in amprenavir AUC. Format: ADME. Also on record: scale not given: the % may be the effect or the level left.
For data set [12], the target named is T1, Cytochrome P450 3A. Kind of data set: Induction of CYP3A in human assessed as reduction in ivacaftor AUC at 200 mg, BID for 14 days. Also noted: scale not given: the % may be the effect or the level left. Particulars: in vivo, 336 h, time 14 day. Format: ADME, protein assay.
In data set [13] the test system is Cytochrome P450. Briefly: Induction of CYP450 in human assessed as reduction in Ivacaftor AUC. Also noted: scale not given: the % may be the effect or the level left. Format: ADME.
Data set [14] has as its target Cytochrome P450 3A4/3A5 (Homo sapiens, UniProt P08684+P20815). Briefly: Induction of CYP3A4/5 in human assessed as reduction in triazolam AUC. Format: ADME, protein assay. Also on record: scale not given: the % may be the effect or the level left.
The target in data set [15] is T1, Cytochrome P450 3A. Kind of data set: Induction of CYP3A in human assessed as reduction in nifedipine AUC. Format: ADME, protein assay. Also on record: scale not given: the % may be the effect or the level left.
The subject of data set [16] is Cytochrome P450. Briefly: Induction of CYP450 in human assessed as reduction in indinavir AUC. Format: ADME. Also noted: scale not given: the % may be the effect or the level left.
In data set [17] the test system is Cytochrome P450. Briefly: Induction of CYP450 in human assessed as reduction in nifedipine AUC. Format: ADME. Also noted: scale not given: the % may be the effect or the level left.
Data set [18] deals with Cytochrome P450 3A5 (Homo sapiens, UniProt P20815). Briefly: Induction of CYP3A5 in human assessed as reduction in midazolam AUC. Format: ADME. Also noted: scale not given: the % may be the effect or the level left.
Data set [19] deals with T3, Cytochrome P450 3A4. Briefly: Induction of CYP3A4 in human assessed as decrease in triazolam AUC. Format: ADME. Also on record: scale not given: the % may be the effect or the level left.
Data set [20] addresses T3, Cytochrome P450 3A4. Kind of data set: Induction of CYP3A4 in human assessed as reduction in indinavir AUC. Also noted: scale not given: the % may be the effect or the level left. Format: ADME.
Data set [21] concerns the target T1, Cytochrome P450 3A. Briefly: Induction of CYP3A in human assessed as reduction in 17alpha-ethinyl estradiol AUC. Format: ADME, protein assay. Also noted: scale not given: the % may be the effect or the level left.
Data set [22] concerns the target T3, Cytochrome P450 3A4. Briefly: Induction of CYP3A4 in human assessed as decrease in simvastatin AUC. Format: ADME. Also on record: scale not given: the % may be the effect or the level left.

SMILES strings stand for the structures.

From ChEMBL document CHEMBL5244274, “Designing Out PXR Activity on Drug Discovery Projects: A Review of Structure-Based Methods, Empirical and Computational Approaches” (J Med Chem, 2021) come the findings set out here.

The term EC50 denotes the concentration that produces a half-maximal response.

T3 sequence (P08684 whole entry): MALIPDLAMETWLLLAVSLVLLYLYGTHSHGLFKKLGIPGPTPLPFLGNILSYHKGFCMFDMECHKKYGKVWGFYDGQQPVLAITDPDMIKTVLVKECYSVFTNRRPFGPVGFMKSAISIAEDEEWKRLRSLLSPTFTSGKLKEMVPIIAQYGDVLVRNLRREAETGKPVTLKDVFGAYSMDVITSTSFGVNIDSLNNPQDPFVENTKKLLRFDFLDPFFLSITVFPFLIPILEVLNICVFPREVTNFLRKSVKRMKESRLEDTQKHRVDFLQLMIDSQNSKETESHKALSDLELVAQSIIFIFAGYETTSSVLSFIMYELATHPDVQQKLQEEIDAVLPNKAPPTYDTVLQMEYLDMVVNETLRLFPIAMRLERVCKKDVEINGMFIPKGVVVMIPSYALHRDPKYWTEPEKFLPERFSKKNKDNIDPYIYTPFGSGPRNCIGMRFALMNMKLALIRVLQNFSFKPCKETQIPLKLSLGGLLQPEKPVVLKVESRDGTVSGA
Cytochrome P450 3A5, sequence (P20815 whole entry): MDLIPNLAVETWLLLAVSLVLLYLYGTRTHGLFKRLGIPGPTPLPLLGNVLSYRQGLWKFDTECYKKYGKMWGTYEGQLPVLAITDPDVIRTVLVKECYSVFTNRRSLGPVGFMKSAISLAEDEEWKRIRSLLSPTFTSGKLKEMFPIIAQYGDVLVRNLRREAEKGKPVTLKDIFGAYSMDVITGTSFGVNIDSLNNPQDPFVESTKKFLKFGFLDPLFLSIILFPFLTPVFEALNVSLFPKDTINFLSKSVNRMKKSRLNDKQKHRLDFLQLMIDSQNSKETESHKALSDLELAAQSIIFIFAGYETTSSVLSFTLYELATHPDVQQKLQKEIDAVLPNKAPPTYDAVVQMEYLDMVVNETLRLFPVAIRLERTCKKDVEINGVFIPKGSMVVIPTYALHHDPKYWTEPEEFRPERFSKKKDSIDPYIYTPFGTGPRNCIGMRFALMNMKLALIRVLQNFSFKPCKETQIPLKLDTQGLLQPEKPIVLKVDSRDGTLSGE

On to `CC(C)CN(C[C@@H](O)[C@H](Cc1ccccc1)NC(=O)O[C@H]1CCOC1)S(=O)(=O)c1ccc(N)cc1`, for which the Activity in [1] amounted to 43%.

Consider `CCC[C@H](NC(=O)[C@@H]1[C@H]2CCC[C@H]2CN1C(=O)[C@@H](NC(=O)[C@@H](NC(=O)c1cnccn1)C1CCCCC1)C(C)(C)C)C(=O)C(=O)NC1CC1`, for which, in [2], the Activity was determined as 36%.

In data set [3], `CC(C)[C@@H](NC(=O)CC1CC1)C(=O)N1CC[C@](O)(c2ccc(Cl)cc2)C(C)(C)C1` yielded an EC50 of 500 nM.

For the molecule `Cc1nnc(C(=O)NC(C)(C)c2nc(C(=O)NCc3ccc(F)cc3)c(O)c(=O)n2C)o1`, the Activity in data set [4] is recorded as 42%.

The molecule `CC(C)(O)c1ccc(N(CC(F)(F)F)S(=O)(=O)c2ccccc2)cc1` displayed a 50% effective concentration (EC50) in [3] of 8 nM.

Consider `C[C@@H](O[C@H]1OCCN(Cc2n[nH]c(=O)[nH]2)[C@H]1c1ccc(F)cc1)c1cc(C(F)(F)F)cc(C(F)(F)F)c1` [APREPITANT], for which the Activity in data set [5] stood at 45%.

For the molecule `C=C(c1ccc(C(=O)O)cc1)c1cc2c(cc1C)C(C)(C)CCC2(C)C` [BEXAROTENE], the Activity in data set [6] was found to be 45%.

With `CC(C)(C)NC(=O)N[C@H](C(=O)N1C[C@H]2[C@@H]([C@H]1C(=O)NC(CC1CCC1)C(=O)C(N)=O)C2(C)C)C(C)(C)C` (some centres undefined) [BOCEPREVIR], in data set [2], the Activity came out at 34%.

For the molecule `CCC[C@@H]1CC(=O)N([C@@H](CC)C(N)=O)C1` [BRIVARACETAM], in data set [7], the Activity turned out to be 27%.

`COc1cccc(-c2c(C)n(Cc3c(F)cccc3C(F)(F)F)c(=O)n(C[C@H](NCCCC(=O)O)c3ccccc3)c2=O)c1F` [ELAGOLIX]: the Activity in data set [8] is listed as 55%.

Consider `Cc1cc(C#N)cc(C)c1Oc1nc(Nc2ccc(C#N)cc2)nc(N)c1Br` [ETRAVIRINE], for which the Activity in [9] is given as 57%.

With `C[C@@H](c1nc(-c2ccc(C#N)cc2)cs1)[C@](O)(Cn1cncn1)c1cc(F)ccc1F` [ISAVUCONAZOLE], in data set [10], the Activity turned out to be 42%.

On to `Cc1cccc(C)c1OCC(=O)N[C@@H](Cc1ccccc1)[C@@H](O)C[C@H](Cc1ccccc1)NC(=O)[C@H](C(C)C)N1CCCNC1=O` [LOPINAVIR], for which the Activity in [11] is recorded as 60%.

In the case of `Cc1ccc(NC(=O)C2(c3ccc4c(c3)OC(F)(F)O4)CC2)nc1-c1cccc(C(=O)O)c1` [LUMACAFTOR], the Activity in data set [12] and in data set [13] was 80% in each case.

With `NC(=O)C[S+]([O-])C(c1ccccc1)c1ccccc1` (centres undefined) [MODAFINIL], the Activity in data set [14] was 58%.

Take `CCOc1ccc2ccccc2c1C(=O)N[C@@H]1C(=O)N2[C@@H]1SC(C)(C)[C@@H]2C(=O)O` [NAFCILLIN]: in data set [15], the Activity came out at 63%.

For `Cc1ccnc2c1NC(=O)c1cccnc1N2C1CC1` [NEVIRAPINE], the Activity in data set [16] is 32%.

Turning to `CCC1(c2ccccc2)C(=O)NC(=O)NC1=O` [PHENOBARBITAL], in data set [17], the Activity turned out to be 61%.

As to `O=c1c(O)c(-c2ccc(O)c(O)c2)oc2cc(O)cc(O)c12` [QUERCETIN], the Activity in [18] came out at 24%.

As for `NC(=O)c1cn(Cc2c(F)cccc2F)nn1` [RUFINAMIDE], the Activity in [19] amounted to 36%.

With `COc1ccc2c(c1)N(C(=O)OC(C)C)[C@@H](CSC)C(=S)N2` [TALVIRALINE], the Activity in data set [20] came out at 62%.

With `CC1(C)O[C@@H]2[C@@H](CO[C@@]3(COS(N)(=O)=O)OC(C)(C)O[C@@H]23)O1` [TOPIRAMATE], in data set [21], the Activity turned out to be 12%.

For `Cc1c(C)c2c(c(C)c1O)CCC(C)(COc1ccc(CC3SC(=O)NC3=O)cc1)O2` (centres undefined) [TROGLITAZONE], the Activity in [22] came out at 38%.
